Assay results taken from patent US20230203142A1, “TREATMENT OF METABOLIC DISORDERS THROUGH THE TARGETING OF A NOVEL CIRCULATING HORMONE COMPLEX” (The President and Fellows of Harvard College, priority 2020, published 2023).
One block for each molecule: values may come before it.

Legend:
INS1 cells [1] = test: Glucose-stimulated insulin secretion (GSIS), INS1 cells; assay type: cell-based, rat
Description: This finding was recapitulated in both primary human islets from multiple non-diabetic donors (FIG. 6B), as well as INS1 cells (FIG. 6C). Human islets from review board approved healthy donors were isolated using the Edmonton protocol and provided by the IsletCore and Clinical Islet Laboratory (University of Alberta, Canada). Donors with a BMI<25 and HbA1c<6.0% were used for experiments. Islets were hand-picked three times and cultured at 37° C. in RPMI media with 10% FBS and 1% Penicillin/Streptomycin overnight before use. For INS1 cells, cells were plated at 8000 cells/well in 96-well plates and incubated overnight prior to experimentation. Insulin secretion assay was performed as above using 200 μl/well for each treatment. Cells were lysed using 80 μl ultrapure water and flash freezing. For siRNA experiments, INS1 cells were allowed to reach confluency before transfection of siRNA (Horizon Discovery; L-090381-02-0005) using Lipofectamine 3000 (Thermo Fischer; L3000015) according to manufacturer protocol for 48 hours prior to assays.
As additional controls, it was explored whether lipid binding was required for FABP4 action. […] FABP4 inhibitor studies were performed using BMS-309403 (10 nM; Sigma #BM0015).
To further elucidate the role of purinergic receptors in this signaling process, a potent and selective P2Y1 inhibitor, MRS2179 (Baurand et al., 2001) was utilized. Cells were pre-treated for P2Y1 inhibitor (100 nM; MRS2179, Tocris #0900) during the pre-incubation period.
To confirm activity of this inhibitor, INS1 cells were treated with increasing concentrations of ADP in the presence or absence of MRS2179. […] This supports the hypothesis that the ADP produced by the NDPK-ADK complex signals through the P2Y1 receptor, treatment of INS1 cells with MRS2179 abolished the increase in GSIS associated with addition of NDPK-ADK, with no effect in the presence of NDPK-ADK/FABP4, consistent with the receptor being inhibited by ATP under these conditions (FIG. 6L). […] Treatment of primary mouse islets with H118N NDPK and WT ADK had no effect on GSIS, confirming the requirement of NDPK kinase activity for the biology (FIG. 6N). Additionally, it was modeled that the inhibitory effect of the NDPK-ADK/FABP4 complex on GSIS is dependent on the production of ATP by ADK, as activated by the presence of FABP4. To test this, an ADK inhibitor was utilized. Cells were pre-treated with ADK inhibitor (2 nM; Santa Cruz #sc-202900) during the pre-incubation period.

INS1 cells [2] = test: Cytosolic calcium flux, Fura-2 AM imaging; conditions: 20 mM glucose
Description: Cells were pre-treated with P2Y1 activator (0.5 nM; MRS2365 Tocris #2157) during the pre-incubation period. Cells were stimulated with ATP (5 μM; Promega #V915A) or ADP (2.5 μM; Promega #V916A) acutely with the addition of LG and HG KRB during the serial stimulation. Cells were treated with 100 ng/ml recombinant human FABP4 (produced in-house), 200 ng/ml recombinant human ADK (Novus Biologicals, product number NBP1-44382 or R&D Systems, product number 8024-AK-025), or 100 ng/ml recombinant human NDPK-A (Acro Biosystems, product number NM1-H5147) where indicated, for the pre-incubation period, as well as during the glucose stimulation.
Briefly, INS1 cells were plated in imaging disks at 5000 cells/dish and cultured in standard media overnight. Cells were washed with PBS, and incubated in imaging buffer without glucose, with or without calcium containing Fura-2 AM (2 mM; ThermoFisher F1201) for 30 minutes at 37° C. Cells were washed twice with fresh PBS, and placed in lml imaging buffer. Calcium flux was evaluated with the addition of 20 mM glucose, 30 mM KCl, or 1 μM Thapsigargin. Extracellular calcium was added at 1.5 mM. Calcium flux measurements were performed using an epifluorescence system coupled to a Ti-S/L100 inverted microscope L100 with fluorescent light source (X-Cite 120LED System) equipped with Lambda DG-4 Plus for UV ratiometric probes. Excitations at 340 nm and 380 nm were used and an emission of 510 nm. Analysis was performed using ImageJ software. Calcium flux was measured from 50 cells per coverslip.

CA33 (a-Ab) = test: MST epitope mapping: nested NDPK-A peptides with a-Ab; assay type: binding
Description: To define the binding site of a-Ab on NDPK, a nested series of peptides were generated covering human NDPK-A and interaction of each peptide with a-Ab was evaluated by Microscale Thermophoresis (MST) (FIG. 4D). MST is a technology for the interaction analysis of biomolecules. MST is the directed movement of particles in a microscopic temperature gradient. Any change of the hydration shell of biomolecules due to changes in their structure/conformation results in a relative change of the movement along the temperature gradient and is used to determine binding affinities. MST allows measurement of interactions directly in solution without the need of immobilization to a surface (immobilization-free technology).

primary mouse islets = test: Glucose-stimulated insulin secretion (GSIS), mouse islets; assay type: cell-based; conditions: primary / WT mouse islets
Description: Primary islet isolation from mice was performed as previously described (Batchuluun et al., 2018; Prentice et al., 2014) and GSIS was assessed following acute treatment with NDPK-ADK in the presence or absence of FABP4. Insulin secretion assays were performed as previously described (Prentice et al., 2014). For primary islets, 20 islets were hand-picked into 1.5 ml tubes, washed twice with Krebs Ringer Buffer (KRB) without glucose, and pre-incubated in 500 μl low glucose (LG; 2.8 mM) KRB for 1 hour at 37° C. KRB was then removed and 250 μl of fresh LG KRB added. Islets were incubated for 20 minutes at 37° C. Supernatant was collected and 250 μl high glucose (HG; 16.7 mM) KRB added. Islets were incubated for 20 minutes at 37° C. In conditions where KCl was used, HG KRB was collected, and 250 μl KC1 (16.7 mM glucose, 30 mM KCl) KRB added. Islets were incubated for 20 minutes at 37° C., and supernatant collected. Following the stimulation protocol, cells were lysed in 100 μl acid ethanol (70% ethanol, 1% HCl in water) and stored at 4° C. overnight. Samples were evaporated using a SpeedVac until dried, and resuspended in 60 μl ultrapure water. DNA was quantified by Nanodrop (ThermoFisher, USA). Insulin from supernatant was quantified using insulin HTRF (Insulin Ultrasensitive Assay kit 62IN2PEH; Cisbio, USA).

recombinant NDPK = target: T1, recombinant NDPK (Homo sapiens, UniProt P15531, H118N); test: Recombinant kinase activity assay, NDPK (ADP-Glo/Kinase-Glo); assay type: biochemical; conditions: kinase activity of NDPK mutant
T1 construct: purchased Acro Biosystems NM1-H5147
Description: (§1) An on-bead kinase assay was developed to measure the activity of endogenous NDPK and ADK pulled down from serum using a-Ab or c-Ab conjugated beads. Both NDPK and ADK are bi-directional kinases that will produce ATP or ADP depending on the substrates provided (FIGS. 4B-C). Kinase activity assays were performed in 384-well plates in reaction buffer (PBS with 0.1% BSA, 0.01% F-127, 5 mM MgCl2). Experiments with recombinant proteins were performed at final concentrations of 40 μg/ml for ADK and FABP4, and 20 ug/ml for NDPK, and a reaction volume of 10 μl. Antibodies were used at a final concentration of 80 ug/ml. […] Proteins and substrates were incubated for 1 hr at room temperature, and ADP and ATP production were monitored using ADP-Glo and Kinase-Glo kits, respectively, according the manufacturer instructions (V6930 and V6711 Promega, USA). Luminescence was quantified using a SpectraMax Paradigm plate reader 30 min after the addition of substrate. Consistent with the MS results, ADK activity, as measured by generation of ATP, was specifically observed in samples pulled down with a-Ab but not c-Ab (FIG. 5A). […] To test this possibility, the ATP and ADP generating activity of recombinant ADK was assessed in the presence of the proposed complex components.

recombinant ADK = target: T2, recombinant ADK (Homo sapiens, UniProt P55263); test: Recombinant kinase activity assay, ADK (Kinase-Glo); assay type: biochemical; conditions: recombinant ADK plus the added component
T2 construct: purchased Novus Biologicals or R&D Systems NBP1-44382 or 8024-AK-025
Description: as §1

T1 sequence (P15531 whole entry H118N): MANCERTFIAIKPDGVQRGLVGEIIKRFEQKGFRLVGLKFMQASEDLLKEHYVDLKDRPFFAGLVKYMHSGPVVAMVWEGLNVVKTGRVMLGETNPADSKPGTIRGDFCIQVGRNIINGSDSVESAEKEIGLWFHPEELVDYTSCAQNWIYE
T2 sequence (P55263 whole entry): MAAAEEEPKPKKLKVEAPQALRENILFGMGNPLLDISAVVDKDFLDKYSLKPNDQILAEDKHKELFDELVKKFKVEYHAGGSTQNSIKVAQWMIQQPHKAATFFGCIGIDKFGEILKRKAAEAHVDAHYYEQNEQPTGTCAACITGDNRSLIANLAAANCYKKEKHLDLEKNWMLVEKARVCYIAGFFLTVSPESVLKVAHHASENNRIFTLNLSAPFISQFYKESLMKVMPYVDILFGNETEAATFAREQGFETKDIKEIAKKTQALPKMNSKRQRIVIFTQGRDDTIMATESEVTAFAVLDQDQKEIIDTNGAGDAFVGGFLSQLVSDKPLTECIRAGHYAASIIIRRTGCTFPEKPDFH

Molecule: Nc1ncnc2c1ncn2[C@@H]1O[C@H](COP(=O)(O)OP(=O)(O)O)[C@@H](O)[C@H]1O [ADP]
- GSIS in the presence of the NDPK-ADK/FABP4 complex (INS1 cells [1]): potentiated
- insulin secretion / GSIS with exogenous nucleotide (INS1 cells [1]): potentiated

Molecule: Nc1ncnc2c1ncn2[C@@H]1O[C@H](COP(=O)(O)OP(=O)(O)OP(=O)(O)O)[C@@H](O)[C@H]1O [ATP]
- increase in GSIS with addition of NDPK-ADK (INS1 cells [1]): blunted
- insulin secretion / GSIS with exogenous nucleotide (INS1 cells [1]): suppressed

Molecule: Nc1ncnc2c1ncn2[C@@H]1O[C@H](COP(=O)(O)OP(=O)(O)OP(O)(O)=S)[C@@H](O)[C@H]1O [ATPgS]
- increase in GSIS with addition of NDPK-ADK (INS1 cells [1]): more pronounced

Molecule: CCc1c(-c2ccccc2)c(-c2ccccc2)nn1-c1ccccc1-c1cccc(OCC(=O)O)c1 [BMS-309403]
- effect on suppressing NDPK-ADK-potentiated GSIS as WT recombinant FABP4 (INS1 cells [1]; FABP4 mutant or FABP4 treated with inhibitor): same effect

Molecule: CNc1ncnc2c1ncn2[C@H]1C[C@H](OP(=O)(O)O)[C@@H](COP(=O)(O)O)O1 [MRS2179]
- GSIS in the presence of the NDPK-ADK/FABP4 complex (INS1 cells [1]): no effect
- increase in GSIS with addition of NDPK-ADK (INS1 cells [1]): abolished
- ADP-stimulated increase in GSIS (INS1 cells [1]; increasing concentrations of ADP): completely inhibited

Molecule: CSc1nc(N)c2ncn([C@H]3[C@H](O)[C@H](O)[C@]4(COP(=O)(O)OP(=O)(O)O)C[C@H]34)c2n1 [MRS2365, reference compound]
- extracellular calcium influx in response to glucose (INS1 cells [2]): rescued

- binding with a-Ab (in words) (CA33 (a-Ab)): High affinity binding
Molecule: GPVVAMVWEGLNVVK [Peptide 8]

- capacity to generate ADP (recombinant NDPK): no capacity
Molecule: H118N NDPK: kinase-dead H118N NDPK mutant
- GSIS (primary mouse islets): no effect

- binding with a-Ab (in words) (CA33 (a-Ab)): Low affinity binding
Molecule: IKPDGVQRGLVGEII [Peptide 2]

- ADK activity to generate ATP (recombinant ADK): no effect
Molecule: NDPK: recombinant human NDPK-A (Acro Biosystems)

- binding with a-Ab (in words) (CA33 (a-Ab)): Low affinity binding
Molecule: VGEIIKRFEQKGFRL [Peptide 3]
